Biological target: T1, purified STEP46 enzyme (Homo sapiens, UniProt P54829)
T1 sequence (P54829 197-565 limits assumed): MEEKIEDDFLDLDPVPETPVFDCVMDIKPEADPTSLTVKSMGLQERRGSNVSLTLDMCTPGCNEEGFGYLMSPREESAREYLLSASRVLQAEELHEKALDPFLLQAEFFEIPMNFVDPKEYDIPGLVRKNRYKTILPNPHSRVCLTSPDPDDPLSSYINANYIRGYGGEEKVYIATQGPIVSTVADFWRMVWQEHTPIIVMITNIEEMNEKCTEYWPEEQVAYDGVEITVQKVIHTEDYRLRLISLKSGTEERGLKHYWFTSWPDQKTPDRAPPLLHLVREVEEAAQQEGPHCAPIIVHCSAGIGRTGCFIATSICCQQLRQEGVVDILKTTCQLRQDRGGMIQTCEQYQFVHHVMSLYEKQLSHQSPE
Test: STEP46 biochemical assay (DiFMUP fluorescence phosphatase assay)
Settings: DiFMUP 10 μM, read-out: STEP IC50
Protocol: Serial dilutions of compounds were performed in 100% DMSO and 1 uL of compounds were dispensed into 384-well black polystyrene plates (Corning, N.Y.). Compounds were incubated with 24 uL of buffer containing 50 mM Hepes, 1 mM DTT, 0.02% Brij35, 1 ng/well purified STEP46 enzyme for […] at room temperature. The reaction was initiated by addition of 25 uL of DiFMUP (6,8-difluoro-4-methylumbelliferyl phosphate) (InVitrogen, CA) with a final concentration of 10 μM and incubated at 27° C. for 90 mM Final DMSO concentration is 2%. Plates were read with florescence intensity at excitation/emission of 360/460 nm using a PheraStar plate reader (BMG Labtech, NC).
Data were expressed as percentage (%) inhibition of enzyme activity. 0% inhibition is defined as the RFUs (relative fluorescence units) in the absence of compounds and 100% inhibition is defined as RFUs in the absence of STEP46 enzyme. IC50 values of compounds with inhibitory activity against STEP46 were determined by GraphPad Prism (version 4.03) using four parameter logistic equation. Some compounds act as activators. For compounds showing STEP46 enzymatic activation, data are represented as percentage of inhibition but with negative values at three representative concentrations (25, 50 and 100 uM).

IC50 | SMILES
1000 to 10000 nM | CNc1nc(-c2cccnc2)nc2c(-c3cc(F)cc(F)c3)ccc(OC)c12 [Compound 491]
1000 to 10000 nM | NC(=O)C1CN(c2nc(-c3cccnc3)nc3ccc(-c4ccc(F)cc4F)cc23)C1 [Compound 419]
1000 to 10000 nM | CNc1nc(-c2cccnc2)nc2c(Cl)cc(-c3cccc(F)c3)cc12 [Compound 264]
1000 to 10000 nM | CNc1nc(-c2cccnc2)nc2c(C)c(-c3ccc(F)c(F)c3F)ccc12 [Compound 286]
> 10000 nM | Fc1ccc(-c2ccc3nc(-c4cccnc4)nc(NCCc4ccccn4)c3c2)cc1 [Compound 337]
1000 to 10000 nM | CNc1nc(-c2cccnc2)nc2cc(F)c(-c3cccc(F)c3)cc12 [Compound 584]
< 1000 nM | O=[N+]([O-])c1ccc2c(c1)CCN2c1nc(-c2cccnc2)nc2ccc(-c3ccc(F)cc3)cc12 [Compound 87]
< 1000 nM | Cc1c(-c2cccnc2)ccc2c(N3CCc4cc(Cl)ccc43)nc(-c3cccnc3)nc12 [Compound 114]
1000 to 10000 nM | CNc1nc(-c2cccnc2)nc2ccc(-c3cccc(OCCC(C)O)c3)cc12 (stereo not shown) [Compound 224]
1000 to 10000 nM | CNc1nc(-c2cccnc2)nc2cc(-c3ccc(OC)cc3F)ccc12 [Compound 218]
1000 to 10000 nM | CNc1nc(-c2cccnc2)nc2cc(-c3cc(OC)ccc3F)ccc12 [Compound 219]
< 1000 nM | CNc1nc(-c2cccnc2)nc2c(F)c(-c3cc(F)cc(F)c3)ccc12 [Compound 516]
1000 to 10000 nM | CNc1nc(-c2cccnc2)nc2ccc(-c3cccc4c3CNC4=O)cc12 [Compound 450]
1000 to 10000 nM | Fc1ccc(-c2ccc3c(NCCc4ccccn4)nc(-c4cccnc4)nc3c2)cc1 [Compound 340]
1000 to 10000 nM | CNc1nc(-c2cccnc2)nc2cc(-c3ccc(F)cc3F)c(F)cc12 [Compound 551]
1000 to 10000 nM | COc1ccc2nc(-c3cccnc3)nc(Nc3cc(F)ccn3)c2c1 [Compound 31]
1000 to 10000 nM | CNc1nc(-c2cccnc2)nc2c(C)c(-c3ccncc3)ccc12 [Compound 293]
< 1000 nM | Cn1ccc2cc(-c3ccc4nc(-c5cccnc5)nc(NCCc5ccccn5)c4c3)ccc21 [Compound 346]
> 10000 nM | COc1ccc2nc(-c3cccnc3)nc(Nc3cc(Cl)ccn3)c2c1 [Compound 45, N-(4-chloropyridin-2-yl)-6-methoxy-2-(pyridin-3-yl)quinazolin-4-amine]
1000 to 10000 nM | CNc1nc(-c2cccnc2)nc2c(F)c(-c3ccc(C(F)(F)F)cc3)ccc12 [Compound 528]
1000 to 10000 nM | CC(Nc1nc(-c2cccnc2)nc2cc(-c3cc(F)ccc3F)ccc12)c1ccccn1 (stereo not shown) [Compound 368]
> 10000 nM | CNc1nc(-c2ccnnc2)nc2ccc(-c3cccc(F)c3)cc12 [Compound 212]
> 10000 nM | CCc1nc2ccc(Nc3nc(-c4cccnc4)nc4ccc(OC)cc34)cc2o1 [Compound 40]
1000 to 10000 nM | c1ccc(CNc2nc(-c3cccnc3)nc3cc(-c4cc5ccccc5o4)ccc23)nc1 [Compound 347]
1000 to 10000 nM | Fc1cncc(Nc2nc(-c3cccnc3)nc3ccc(Cl)cc23)c1 [Compound 48]
< 1000 nM | Clc1ccc2c(c1)CCN2c1nc(-c2cccnc2)nc2cc(-c3cccnc3)ccc12 [Compound 99]
1000 to 10000 nM | CNc1nc(-c2cccnc2)nc2ccc(-c3cc(C)oc3C)cc12 [Compound 285]

The remaining lines, values behind:

SMILES | IC50
CNc1nc(-c2cccnc2)nc2ccc(-c3ccc(F)cc3F)c(OC)c12 [Compound 487] | 1000 to 10000 nM
CNc1nc(-c2cccnc2)nc2ccc(-c3ccc(F)c(C(N)=O)c3)cc12 [Compound 183] | 1000 to 10000 nM
COc1ccc2nc(-c3cccnc3)nc(Nc3ccc4nc(C)oc4c3)c2c1 [Compound 39] | 1000 to 10000 nM
CNc1nc(-c2cccnc2)nc2ccc(-c3ccc4c(c3)SCC(=O)N4)cc12 [Compound 471] | 1000 to 10000 nM
CNc1nc(-c2cccnc2)nc2c(C)c(-c3ccccc3C)ccc12 [Compound 297] | > 10000 nM
Cc1ccc(Nc2nc(-c3cccnc3)nc3ccc(Cl)cc23)nc1 [Compound 57] | 1000 to 10000 nM
CNc1nc(-c2cccnc2)nc2cc(-c3c(F)cccc3F)ccc12 [Compound 455] | 1000 to 10000 nM
CNc1nc(-c2cncc(C#N)c2)nc2cc(-c3cc(F)ccc3F)ccc12 [Compound 163] | 1000 to 10000 nM
Cc1c(-c2cccc(F)c2)ccc2c(N3CCc4cc(Cl)ccc43)nc(-c3cccnc3)nc12 [Compound 117] | > 10000 nM
COc1ccc2nc(-c3cccnc3)nc(Nc3ccc(C#N)cn3)c2c1 [Compound 46] | 1000 to 10000 nM
CNc1nc(-c2cccnc2)nc2c(F)c(-c3cccc(F)c3F)ccc12 [Compound 515] | 1000 to 10000 nM
CNc1nc(-c2cccnc2)nc2c(OC)cc(-c3ccccc3OC)cc12 [Compound 207] | 1000 to 10000 nM
CNc1nc(-c2cccnc2)nc2c(-c3cccc(C#N)c3)cccc12 [Compound 272] | < 1000 nM
CNc1nc(-c2cccnc2)nc2cc(F)c(-c3cccc(OC)c3)cc12 [Compound 590] | 1000 to 10000 nM
CNc1nc(-c2cccnc2)nc2c(OC)cc(-c3ccc(F)c(F)c3)cc12 [Compound 255] | 1000 to 10000 nM
Fc1ccc(-c2ccc3c(N4CCc5ccccc54)nc(-c4cccnc4)nc3c2)c(F)c1 [Compound 103] | 1000 to 10000 nM
CNc1nc(-c2cccnc2)nc2cc(C(F)(F)F)c(-c3ccc(F)cc3F)cc12 [Compound 198] | > 10000 nM

SMILES | IC50
c1ccc(CNc2nc(-c3cccnc3)nc3ccc(-c4cc5ccccc5o4)cc23)nc1 [Compound 343] | < 1000 nM
CNc1nc(-c2cccnc2)nc2cc(F)c(-c3ccccc3OC)cc12 [Compound 593] | > 10000 nM
CNc1nc(-c2cncnc2)nc2ccc(-c3cccc(F)c3)cc12 [Compound 210] | 1000 to 10000 nM
Fc1ccc(-c2ccc3nc(-c4cccnc4)nc(-c4nccs4)c3c2)c(F)c1 [Compound 416] | < 1000 nM
Fc1cccc(-c2ccc3nc(-c4cccnc4)nc(NCCc4ccccn4)c3c2)c1 [Compound 336] | 1000 to 10000 nM
CNc1nc(-c2cccnc2)nc2ccc(-c3ccc(CO)cc3)cc12 [Compound 173] | 1000 to 10000 nM
CNc1nc(-c2cccnc2)nc2c(C)c(-c3cc(F)c(F)c(F)c3)ccc12 [Compound 289] | < 1000 nM
CNc1nc(-c2cccnc2)nc2ccc(-c3cccc(S(N)(=O)=O)c3)cc12 [Compound 235] | > 10000 nM
CNc1nc(-c2cccnc2)nc2cc(OC(F)(F)F)c(-c3cccc(F)c3F)cc12 [Compound 404] | 1000 to 10000 nM
Cc1ccc2c(c1)CCN2c1nc(-c2cccnc2)nc2ccc(-c3ccc(F)cc3F)cc12 [Compound 73] | 1000 to 10000 nM
Fc1ccc(-c2ccc3c(N4CCc5cc(Cl)ccc54)nc(-c4cccnc4)nc3c2)cc1 [Compound 97] | 1000 to 10000 nM
COc1cc(F)ccc1-c1ccc2c(N3CCc4cc(Cl)ccc43)nc(-c3cccnc3)nc2c1 [Compound 110] | < 1000 nM
CCOc1ccc(F)c(-c2ccc3nc(-c4cccnc4)nc(NC)c3c2)c1 [Compound 201] | 1000 to 10000 nM
Fc1cccc(-c2ccc3nc(-c4cccnc4)nc(NCc4ccccn4)c3c2)c1 [Compound 373] | > 10000 nM
O=[N+]([O-])c1ccc2c(c1)CCN2c1nc(-c2cccnc2)nc2ccc(-c3cccc(F)c3F)cc12 [Compound 83] | < 1000 nM
CNc1nc(-c2cccnc2)nc2ccc(-c3ccc4[nH]c(=O)[nH]c4c3)cc12 [Compound 168] | < 1000 nM
CNC(=O)c1cc(-c2ccc3nc(-c4cccnc4)nc(NC)c3c2)ccc1F [Compound 180] | 1000 to 10000 nM
